Results from patent US9321838B2, “Therapy targeting cathepsin S” (Fusion Antibodies Limited, priority 2006, dated 2016).

Experiments:
[1] = system: HCT116+/+ human colorectal adenocarcinoma xenograft; test: HCT116+/+ xenograft model, immunohistochemistry of tumour sections; assay type: in vivo, SCID mice; details: 15 mg/kg; sections stained with CatS 1E11 mAb; vs untreated
Method: 6-8 week old female SCID mice were implanted with 2×10^6 HCT116+/+ human colorectal adenocarcinoma cells into each flank. […] They were mixed with equal volumes of matrigel to give a final concentration of 5×10^6 cells/ml. Mice were randomly separated into treatment groups on day 5 after implantation and treated with various regimes of CatS Mab or Isotype control Mab (10 mg/kg) with/without 5Fu (15 mg/kg daily or 70 mg/kg twice weekly). All drugs were administered through a bolus injection. Animals were sacrificed at various time points and tumours were removed for analysis.
Paraffin embedding of formalin-fixed xenograft/organ tissue samples, section cutting and H&E (haematoxylin and eosin) staining of tissue sections were performed as previously described. Immunostaining was performed using the avidin-horseradish peroxidase method (Vectorlabs ABC Kit).
Briefly, sections were deparaffinised by passing from xylene to alcohol to running water. Endogenous peroxidase activity was blocked by incubation in 3% H2O2 in methanol for 10 min. Sections were then boiled in citrate buffer, pH6.0, for 22 min. Incubation in 5% normal horse serum blocking solution was carried out for 20 min at room temp. Sections were incubated with primary antibody at 4° C. overnight. Appropriate isotype controls were used at the same dilutions as primary antibodies. […]

[2] = system: RKO+/+ cells; test: RT semi quantitative PCR of CatS mRNA with/without CPT11; assay type: cell-based, human; details: 7.5 μM CPT11, 48 hour; treated vs untreated
[3] = system: HCT116+/+ cells; test: as above; assay type: cell-based, human; details: 7.5 μM CPT11, 48 hour; treated vs untreated
[4] = system: RKO+/+ cells; test: western blot of CatS in whole cell lysates with/without CPT11; assay type: cell-based, human; details: 48 hour CPT11 treatment (7.5 μM), whole cell lysate
Method: (§1) Cells were washed in PBS (5 minute centrifugation at 1500 rpm) prior to lysis with RIPA buffer containing a protease inhibitor cocktail (Calbiochem, UK) as previously described. Whole cell lysates were loaded onto 12% SDS-PAGE gels at equal concentrations. Gels were run overnight at 50V prior to semi-dry transfer onto nitrocellulose membrane at 20V for 45 minutes (BioRad, UK). The nitrocellulose membrane was blocked using PBS (3% Milk powder) for ˜1 hour, and washed ×3 with PBS (0.01% tween) for 5 minutes. The membrane was then probed with a 1 in 1000 dilution of CatS Mab (1E4 Mab or 1E11 Mab) in PBS (3% Milk powder) for 1 hour. The membrane was washed ×3 with PBS (0.01% tween) for 5 minutes prior to the addition of a 1 in 5000 dilution of secondary goat anti mouse-HRP conjugated antibody (BioRad, UK) in PBS (3% Milk powder) for 1 hour. This was then washed three times in PBS (0.01% tween) for 5 minutes each. The membrane was ‘developed’ by ECL (enhanced chemiluminescence) using the Super Signal kit (Pierce). The membrane was incubated in ECL solution for 5 minutes, prior to exposure to photographic film for various time periods. The photographic film was washed in developer solution (Sigma, UK) for 1 minute, rinsed with water, and washed in fixer solution (Sigma, UK) again for 1 minute before being rinsed and dried. […]

[5] = system: HCT116+/+ cells; test: as above; assay type: cell-based, human; details: 48 hour CPT11 treatment (7.5 μM), whole cell lysate
Method: as §1

[6] = system: RKO+/+ cells; test: flow cytometry of CatS cell surface expression with/without CPT11; assay type: cell-based, human; details: CPT11 48 hour treated; basal 38%
Method: (§2) Cells were collected from tissue culture plates using a scraper and washed ×3 in PBS (0.01% tween) (5 minute centrifugation at 1500 rpm). Approximately 5×10^5 cells were placed in appropriately labelled tubes. Cells were incubated with 50 μl anti-CatS or Isotype control (Sigma, UK) for 1 hour at room temperature. Following incubation each tube was washed ×3 in PBS (0.01% tween) (5 minute centrifugation at 1500 rpm). Samples were then incubated with a 1 in 15 dilution of FITC-conjugated goat anti-mouse secondary antibody (Sigma, UK) (samples kept in dark at room temperature). Following incubation each tube was washed ×3 in PBS (0.01% tween) (5 minute centrifugation at 1500 rpm). Samples were resuspended in 0.5 ml of PBS prior to immediate analysis using the Cyan flow cytometer (Dako, UK). Cell surface expression of CatS was examined using flow Cytometry.

[7] = system: H630 p53 mutant cells; test: as above; assay type: cell-based, human; details: CPT11 48 hour treated; basal 37%
Method: as §2

[8] = system: HCT116+/+ cells; test: as above; assay type: cell-based, human; details: CPT11 48 hour treated; basal 39%
Method: as §2

[9] = system: U251MG grade IV glioblastoma cell line; details: U251MG cells, in the presence of the Cat S inhibitor; cited from earlier work
[10] = system: other cathepsins; details: at higher concentrations; cited from earlier work

## O=c1[nH]cc(F)c(=O)[nH]1 [5-Fu, Fluorouracil, reference compound]
[1]
  CatS expression in tumour sections from treated mice: upregulation in CatS expression

## CCc1c2c(nc3ccc(OC(=O)N4CCC(N5CCCCC5)CC4)cc13)-c1cc3c(c(=O)n1C2)COC(=O)[C@]3(O)CC [CPT11, Irinotecan]
[2]
  CatS mRNA expression in response to chemotherapy: increase in expression
[3]
  CatS mRNA expression in response to chemotherapy: increase in expression
[4]
  CatS whole protein expression, treated vs untreated: no obvious difference in whole protein expression levels
[5]
  CatS whole protein expression, treated vs untreated: no obvious difference in whole protein expression levels
[6]
  positive CatS cell surface expression following chemotherapy induction: 49%
[7]
  positive CatS cell surface expression following chemotherapy induction: 41%
[8]
  positive CatS cell surface expression following chemotherapy induction: 59%

## CC(C)C[C@H](NC(=O)N1CCOCC1)C(=O)N[C@H](/C=C/S(=O)(=O)c1ccccc1)CCc1ccccc1 [LHVS, 4-Morpholineurea-Leu-HomoPhe-vinylsulphone]
[9]
  reduction in invasion: 61%
[10]
  inhibition of other cathepsins: inhibit other cathepsins when used at higher concentrations
